Results: patent US20120094989A1, “5-HT RECEPTOR MODULATING COMPOUNDS” (priority 2009, published 2012)
Values joined by “and” are separate entries in the source; they are usually repeats but may differ in a detail not shown here. Equal entries are not always repeated. Where two headings read alike, the source gives them in different places.

Columns and labels:
[1] = target: T1, hERG ion channel (Homo sapiens, UniProt Q12809); experiment: hERG tail current, patch-clamp in HEK-293 cells stably transfected with hERG; type: cell-based
T1 construct: expressed in transfected cells; host or cells: HEK-293, stably transfected
T1 sequence (Q12809 whole entry): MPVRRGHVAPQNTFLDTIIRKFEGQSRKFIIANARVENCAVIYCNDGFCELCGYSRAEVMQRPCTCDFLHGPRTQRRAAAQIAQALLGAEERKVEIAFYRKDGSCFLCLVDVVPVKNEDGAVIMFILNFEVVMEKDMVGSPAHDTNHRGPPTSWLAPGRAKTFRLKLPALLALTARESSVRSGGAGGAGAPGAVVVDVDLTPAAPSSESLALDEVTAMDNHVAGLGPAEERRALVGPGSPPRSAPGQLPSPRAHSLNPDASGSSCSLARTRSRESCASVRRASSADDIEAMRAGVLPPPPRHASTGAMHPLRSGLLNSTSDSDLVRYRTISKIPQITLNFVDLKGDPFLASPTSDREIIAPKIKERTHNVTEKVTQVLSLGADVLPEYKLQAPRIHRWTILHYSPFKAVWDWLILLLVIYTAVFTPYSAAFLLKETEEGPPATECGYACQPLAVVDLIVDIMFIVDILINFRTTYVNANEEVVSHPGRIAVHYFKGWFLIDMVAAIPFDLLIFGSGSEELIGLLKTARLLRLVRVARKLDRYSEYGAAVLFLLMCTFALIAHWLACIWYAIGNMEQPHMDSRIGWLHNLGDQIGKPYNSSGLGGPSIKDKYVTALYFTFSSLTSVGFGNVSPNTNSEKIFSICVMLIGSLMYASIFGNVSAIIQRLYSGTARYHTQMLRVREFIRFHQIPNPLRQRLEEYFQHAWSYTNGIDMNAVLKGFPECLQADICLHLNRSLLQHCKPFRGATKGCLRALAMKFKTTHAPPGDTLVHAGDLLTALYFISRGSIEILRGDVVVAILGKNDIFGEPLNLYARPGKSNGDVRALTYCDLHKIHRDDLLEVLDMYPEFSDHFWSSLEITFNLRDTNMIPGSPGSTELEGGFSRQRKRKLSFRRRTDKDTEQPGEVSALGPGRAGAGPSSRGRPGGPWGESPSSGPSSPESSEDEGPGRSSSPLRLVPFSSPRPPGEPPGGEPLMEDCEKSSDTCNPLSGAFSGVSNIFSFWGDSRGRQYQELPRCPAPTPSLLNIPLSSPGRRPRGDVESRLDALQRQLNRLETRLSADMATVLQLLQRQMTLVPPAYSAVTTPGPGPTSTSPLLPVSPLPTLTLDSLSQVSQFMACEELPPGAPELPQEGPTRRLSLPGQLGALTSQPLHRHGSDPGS
Description: The purpose of this study was to assess the effects of the above compounds on hERG (human ether-a-go-go related gene) tail current by examining the acute effect of the test compounds on the hERG ion channel in an appropriate in vitro test system. The human embryonic kidney cell (HEK-293), which has been stably transfected with hERG ion channel cDNA, is a preparation that is considered suitable for this purpose.
Four concentrations of each test compound were tested in a screening assay to determine the liability to block hERG channels. Using the patch-clamp technique, peak hERG tail current amplitude was measured prior to and following exposure to the compounds at the following nominal concentrations:
for approximately 7 to 32 minutes (n=3 cells for each concentration). In addition, peak hERG tail current amplitude was measured in a separate group of 3 cells, prior to and following exposure to vehicle (0.1% DMSO) for time-matched vehicle data correction. Terfenadine (at the submaximally effective concentration of 50 nM, n=3), a known inhibitor of the IKr current, was used as a positive control compound.
The test compound data were corrected for the mean effect of vehicle and rundown and the concentration-response data were plotted and fitted with a sigmoidal function, from which the IC50 values for each compound were calculated.

[2] = target: T2, human 5-HT4(b) receptor (Homo sapiens, UniProt Q13639); experiment: Adenylyl cyclase assay (antagonist pKb, agonist/antagonist properties); type: biochemical; conditions: membranes of HEK293 cells stably expressing human 5-HT4(b) receptor; for Kb: hyphen-separated values taken as single determinations
T2 sequence (Q13639 whole entry): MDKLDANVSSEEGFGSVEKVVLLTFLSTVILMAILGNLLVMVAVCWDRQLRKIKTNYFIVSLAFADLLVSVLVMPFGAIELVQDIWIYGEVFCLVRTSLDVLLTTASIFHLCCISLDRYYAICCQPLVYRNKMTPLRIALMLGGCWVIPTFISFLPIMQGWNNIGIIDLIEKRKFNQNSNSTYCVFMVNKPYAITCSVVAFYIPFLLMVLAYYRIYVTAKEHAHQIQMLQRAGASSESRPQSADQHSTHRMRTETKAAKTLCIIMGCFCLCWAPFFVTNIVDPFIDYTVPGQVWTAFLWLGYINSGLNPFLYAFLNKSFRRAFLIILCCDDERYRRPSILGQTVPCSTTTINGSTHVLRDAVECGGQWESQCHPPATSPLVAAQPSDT
Description: (§1) The development of HEK293 cell lines stably expressing human 5-HT4(b) receptors was described and published previously (Bach et al. 2001). Briefly, HEK293 cells (ATCC) were grown in Dulbecco's modified Eagle's medium with 10% foetal calf serum and penicillin (100 U/ml) and streptomycin (100 μg/ml). Cells were transfected with plasmid DNA (pcDNA3.1(−) containing human 5-HT4(b) receptor cDNA) using SuperFect Transfection Reagent (QIAGEN) according to the manufacturers protocol. Serial dilutions of transfected cells were plated in 96 well plates containing G418 (geneticin; Amersham) at 0.4 mg/ml, and isolated single colonies of cells transformed to the neomycin-resistant phenotype were expanded and tested for expression of serotonin receptors by measuring serotonin-stimulated adenylyl cyclase activity (Themmen et al. 1993). Transformed cells were always grown in the presence of G418 (0.4 mg/ml). For binding and adenylyl cyclase analysis, stable cell lines were grown and maintained in UltraCULTURE™ general purpose serum-free medium (BioWhittaker, Walkersville, Md., USA), supplemented with L-glutamine (2 mM), penicillin (100 U/ml) and streptomycin (100 μg/ml).
(§2) Membranes were prepared from stably transfected HEK293 cells cultured on 150-mm cell culture dishes and grown to 80% confluence in serum-free medium (UltraCULTURE™, BioWhittaker) with penicillin (10 U/ml) and 2 mM L-Glutamine (BioWhittaker). Cells were washed twice with 10 ml ice-cold HBSS, scraped with a rubber policeman in 10 ml ice-cold HBSS and collected by centrifugation at 800 g for 5 min at 4° C. The cell pellet was resuspended in 1 ml/dish ice-cold STE buffer (27% (w/v) sucrose, 50 mM Tris-HCl, pH 7.5 at 20° C., 5 mM EDTA) and homogenized with an Ultra-Turrax (IKA) homogenizer, using five 10 s bursts with 30 s cooling in ice-water between bursts. To remove nuclei, the homogenate was centrifuged at 300 g for 5 min at 4° C. and the supernatant was further centrifuged at 17000 g for 20 min at 4° C. and the supernatant removed. The crude membrane pellet was resuspended with ten strokes of tight fitting pestle B in a Dounce glass-glass homogenizer in 1 ml/dish ice-cold TE (50 mM Tris-HCl, pH 7.5 at RT, 5 mM EDTA). This procedure was repeated twice and the resuspended membranes were finally aliquotted and flash frozen in liquid nitrogen and stored at −70° C. until use.
Adenylyl cyclase activity was measured in membranes of HEK293 cells stably expressing the human 5-HT4(b) receptor (refs.) by determining conversion of [α-^32P]ATP to [^32P]cAMP in membranes prepared in STE by homogenization of cells grown and washed as described above in a Dounce glass-glass homogenizer by 10 strokes with the tight-fitting pestle. Membranes were kept on ice prior to assay. Adenylyl cyclase activities were measured in 10-μl aliquots in a final volume of 50 μl in the presence of 0.1 mM [α-^32P]ATP (1-2×10^6 cpm/assay), 4 mM MgCl2, 20 μM GTP, 1 mM EDTA, 1 mM [^3H]cAMP (ca. 10,000 cpm/assay), […] 3-isobutyl-1-methyl xanthine (IBMX; Sigma), a nucleoside triphosphate regenerating system consisting of 20 mM creatine phosphate (Sigma), 0.2 mg/ml creatine phosphokinase (Sigma) and 40 U/ml myokinase (Sigma) and additives described in the text and figures. When forskolin (Calbiochem, La Jolla, Calif., USA) was used the concentration was 100 μM. Incubations were for 20 min at 32° C. Cyclic AMP formed was quantified by the double column chromatography system of Salomon et al. (1974) as modified by Bockaert et al. (1976).
(§3) Binding and adenylyl cyclase data were analyzed by non-linear regression using Microsoft Excel with the Solver add-in, using the below equations.
Activation of adenylyl cyclase—The data were fit to the equation
where a is basal adenylyl cyclase activity, b is maximal adenylyl cyclase activity stimulated by the agonist, c is EC50, and x is the concentration of agonist.
(§4) IC50 values from competitive binding assays were converted to Kb values by the method of Cheng and Prusoff (1973).

[3] = target: T2, human 5-HT4(b) receptor; experiment: Radioligand binding assay with [3H]GR113808
Description: as §1, §2
Binding assays were performed on membranes of HEK293 cells stably expressing the human 5-HT4(b) receptor (refs.) in 96-well, round-bottom microtiter plates with total reaction volumes of 50-200 μl, containing the indicated concentration of [^3H]GR113808 with or without competing unlabelled ligand in a binding buffer containing 50 mM Tris-HCl (pH 7.5 at RT), 1 mM EDTA, 5 mM EGTA, 2 mM MgCl2, 1 mM ascorbate, 0.1% BSA and 100 μM GTP. The plates were incubated at 23 EC for 60 min and harvested onto UniFilter™-96 GF/C™ (Packard Instrument Co., Meriden, Conn., USA), presoaked in 0.3% polyethyleneimine (Sigma), using a Packard FilterMate Universal Harvester with 96-well format, and washed 4-6 times with approximately 0.25 ml/well of ice-cold buffer, containing 50 mM Tris-HCl (pH 7.0 at RT) and 2 mM MgCl2. The filters were dried and counted at approximately 40% efficiency in a Top-Count liquid scintillation counter (Packard), using 20 μl per filter well of Micro-Scint liquid scintillation cocktail (Packard).
as §3
Competitive binding assays—The data were fit to the equation
where a is non-specific binding, b is total binding in the absence of competitor, c is IC50, and x is the concentration of competitor. Where relevant, relative binding data were obtained by recalculating the data using a=0 and b=100.
as §4

[4] = peak hERG tail current, HEK-293, corrected for vehicle and rundown, sigmoidal fit, read-out: hERG IC50
[5] = [3H]GR113808 competition, membranes of HEK293 cells stably expressing human 5-HT4(b) receptor, hyphen-separated values taken as single determinations, read-out: Binding affinity (pKd value) (converted)
[6] = read-out: Antagonist pKb value (converted)

## O=C(NCC1CCN(Cc2ccc(-c3ccccc3-c3nn[nH]n3)cc2)CC1)c1c2n(c3ccccc13)CCCO2 [Compound 2]
[1]; [4]
  IC50: 27500 nM
[2]
  Agonist/Antagonist properties: Antagonist
[3]
  Kd: 3.89 nM and 4.17 nM and 4.37 nM

## O=C(OCC1CCN(Cc2ccc(-c3ccccc3-c3nn[nH]n3)cc2)CC1)c1c2n(c3ccccc13)CCCO2 [Compound 4]
[2]; Antagonist pKb value
  Kb: 0.00447 nM

## COC(=O)c1ccccc1-c1ccc(CN2CCC(COC(=O)c3c4n(c5ccccc35)CCCO4)CC2)cc1 [Compound 7]
[1]
  IC50: 131 nM
[2]; Antagonist pKb value
  Kb: 0.0132 nM and 0.0479 nM
[3]
  Kd: 0.00251 nM

## O=C(O)c1ccccc1-c1ccc(CN2CCC(COC(=O)c3c4n(c5ccccc35)CCCO4)CC2)cc1 [Compound 8]
[1]; [4]
  IC50: 47500 nM
[2]; Antagonist pKb value
  Kb: 0.0631 nM and 0.331 nM
[3]
  Kd: 0.0363 nM and 0.0776 nM

## COC(=O)c1ccccc1-c1ccc(CN2CCC(CNC(=O)c3cc(Cl)c(N)cc3OC)CC2)cc1 [Compound 17]
[3]; [5]
  Kd: 3.72 nM and 5.01 nM

## COc1cc(N)c(Cl)cc1C(=O)NCC1CCN(Cc2ccc(-c3ccccc3C(=O)O)cc2)CC1 [Compound 18]
[3]; [5]
  Kd: 174 nM and 126 nM

## COc1cc(N)c(Cl)cc1C(=O)NCC1CCN(Cc2ccc(-c3ccccc3-c3nn[nH]n3)cc2)CC1 [Compound 20]
[3]; [5]
  Kd: 18.6 nM and 27.5 nM

## O=C(OCC1CCN(C2C3CC4C(C3C(=O)O)C42)CC1)c1c2n(c3ccccc13)CCCO2 (stereo not shown) [Compound 23]
[2]; Antagonist pKb value
  Kb: 3.63 nM
[2]
  Agonist/Antagonist properties: Antagonist
[3]
  Kd: 1.51 nM

## O=C(OCC1CCN(C2CCC(C(=O)O)C2)CC1)c1c2n(c3ccccc13)CCCO2 (stereo not shown) [Compound 24]
[1]; [4]
  IC50: 209000 nM
[2]
  Agonist/Antagonist properties: Antagonist
[2]; [6]
  Kb: 2.51 nM
[3]
  Kd: 1.15 nM

## O=C(OCC1CCN(C2CCCC(C(=O)O)C2)CC1)c1c2n(c3ccccc13)CCCO2 (stereo not shown) [Compound 25]
[2]
  Agonist/Antagonist properties: Antagonist
[2]; [6]
  Kb: 2.51 nM
[3]
  Kd: 1.2 nM

## CC(C(=O)O)c1ccc(CN2CCC(COC(=O)c3c4n(c5ccccc35)CCCO4)CC2)cc1 (stereo not shown) [Compound 27]
[1]
  IC50: 25000 nM
[2]; Antagonist pKb value
  Kb: 1.62 nM
[3]
  Kd: 0.513 nM

## CC(C)(C(=O)O)c1ccc(CN2CCC(COC(=O)c3c4n(c5ccccc35)CCCO4)CC2)cc1 [Compound 29]
[2]; [6]
  Kb: 1.66 nM
[3]
  Kd: 0.355 nM

## Cn1cc(C(=O)OCC2CCN(CCNS(C)(=O)=O)CC2)c2ccccc21 [GR113808, 1-methyl-1H-indole-3-carboxylic acid, [1-[2-[(methylsulfonyl)amino]ethyl]-4-piperidinyl]methyl ester, reference compound]
[2]; Antagonist pKb value
  Kb: 0.0891 nM
[2]
  Agonist/Antagonist properties: Antagonist
[3]
  Kd: 0.112 nM and 0.0389 nM

## CCCCN1CCC(CNC(=O)c2c3n(c4ccccc24)CCCO3)CC1 [SB207266, reference compound]
[2]
  Agonist/Antagonist properties: Antagonist
[2]; [6]
  Kb: 0.0537 nM and 0.0372 nM and 0.269 nM
[3]; [5]
  Kd: 0.263 nM and 0.209 nM and 0.166 nM and 0.0355 nM and 0.0407 nM
